The text below walks through data of patent publication US20240400555A1 (Initial Therapeutics, Inc., priority 2023, published 2024).

One assay relates to HCT-116 Firefly-luciferase reporter cells. As to the kind of experiment: Cellular c-MYC Reporter Assay. The format is cell-based. Particulars: Homo sapiens, HCT-116, 24 h, read-out: pIC50 (converted). How it is done: HCT-116 Firefly-luciferase reporter cells (BPS Bioscience) were seeded in 96-well tissue-culture treated sterile plates (Greiner Bio-One) at 5e4 cells/mL in 100 μL complete growth media (McCoy's 5A+10% FBS, +1% Pen-Strep, +1% G418). Cells were incubated at 37° C. with 5% CO2 for 4-6 h then treated with 3× compound solution in 50 μL complete growth media for a final volume of 150 μL per well with 0.2% DMSO. After 24 h incubation at 37° C. with 5% CO2, plates were allowed to equilibrate to RT for 20 min then developed by addition of 100 μL ONE-Glo Luciferase detection reagent (Promega), incubated at RT for 10 min. Luminescence was recorded using a SpectraMax i3x plate reader (Molecular Devices) and analyzed using Prism GraphPad 9 software.
On the technique in general: Reporter assays use an easily measured gene product as a stand-in for the process of interest.
Turning to `Cc1cccc2ccnc(N(C(=O)c3ccc(-n4nnc5cccnc54)cc3)[C@@H]3CCCNCC3)c12` [Example 229, (R)-4-(3H-[1,2,3]triazolo[4,5-b]pyridin-3-yl)-N-(azepan-4-yl)-N-(8-methylisoquinolin-1-yl)benzamide], the IC50 was 15100 nM.

The assay is the same for the next values; noted with them: Homo sapiens; untitled table following Table 8a; HCT-116 Firefly-luciferase reporter cells, 24 h; read-out: pIC50 (converted).
For `O=C(c1ccc(-n2nnc3cccnc32)cc1F)N(c1ncccc1-c1cnoc1)[C@@H]1CCCNC1` [Example 114, (R)-4-(3H-[1,2,3]triazolo[4,5-b]pyridin-3-yl)-2-fluoro-N-(3-(isoxazol-4-yl)pyridin-2-yl)-N-(piperidin-3-yl)benzamide], the IC50 was 1120 nM.

Regarding `Cc1cncc(-c2ccc(C(=O)N(c3nccc4cccc(C)c34)[C@@H]3CCCNC3)c(F)c2)n1` [Example 202, (R)-2-fluoro-N-(8-methylisoquinolin-1-yl)-4-(6-methylpyrazin-2-yl)-N-(piperidin-3-yl)benzamide], the IC50 was 372 nM.

Regarding `O=C(c1ccc(-n2nnc3cccnc32)cc1F)N(c1nccc2ccc(CCCO)cc12)[C@@H]1CCCNC1` [Example 134, (R)-4-(3H-[1,2,3]triazolo[4,5-b]pyridin-3-yl)-2-fluoro-N-(7-(3 hydroxypropyl)isoquinolin-1-yl)-N-(piperidin-3-yl)benzamide], the IC50 was 575 nM.

On to `Cn1cc(-c2ccc(C(=O)N(c3cc(-c4cc[nH]n4)ccn3)[C@@H]3CCCNC3)cc2)nn1` [Example 110, 4-(1-methyltriazol-4-yl)-N-[(3R)-3-piperidyl]-N-[4-(1H-pyrazol-3-yl)-2-pyridyl] benzamide], for which the IC50 was more than 10000 nM.

For the molecule `O=C(c1ccc(-n2nnc3cccnc32)cc1F)N(c1ncccc1/C=C/CO)[C@@H]1CCCNC1` [Example 289, (R,E)-4-(3H-[1,2,3]triazolo[4,5-b]pyridin-3-yl)-2-fluoro-N-(3-(3-hydroxyprop-1-en-1-yl)pyridin-2-yl)-N-(piperidin-3-yl)benzamide], the IC50 was more than 5890 nM.

With `O=C(c1ccc(-n2nnc3cccnc32)cc1F)N(c1ncccc1C#CCCO)[C@@H]1CCCNC1` [Example 105, 2-fluoro-N-[3-(4-hydroxybut-1-ynyl)-2-pyridyl]-N-[(3R)-3-piperidyl]-4-(triazolo[4,5-b]pyridin-3-yl)benzamide], the IC50 is 6310 nM.

As to `O=C(c1ccc(-n2nnc3cccnc32)cc1F)N(c1nccc2ccc(-c3cccnc3)cc12)[C@@H]1CCCNC1` [Example 151, (R)-4-(3H-[1,2,3]triazolo[4,5-b]pyridin-3-yl)-2-fluoro-N-(piperidin-3-yl)-N-(7-(pyridin-3-yl)isoquinolin-1-yl)benzamide], the IC50 is 1020 nM.

In the case of `Cc1cccc2ccnc(N(C(=O)c3ccc(-n4nnc5cccnc54)nc3)[C@@H]3CCCNC3)c12` [Example 245, (R)-6-(3H-[1,2,3]triazolo[4,5-b]pyridin-3-yl)-N-(8-methylisoquinolin-1-yl)-N-(piperidin-3-yl)nicotinamide], the IC50 is 155 nM.

As for `CCCc1nnn(-c2ccc(C(=O)N(c3nccc4cccc(C)c34)[C@@H]3CCCNC3)c(F)c2)n1` [Example 286, (R)-2-fluoro-N-(8-methylisoquinolin-1-yl)-N-(piperidin-3-yl)-4-(5-propyl-2H-tetrazol-2-yl) benzamide], the IC50 is 195 nM.

`Cn1cc(-c2ccc3c(N(C(=O)c4ccc(-n5nnc6cccnc65)cc4F)[C@@H]4CCCNC4)nccc3c2)cn1` [Example 97, (R)-4-(3H-[1,2,3]triazolo[4,5-b]pyridin-3-yl)-2-fluoro-N-(6-(1-methyl-1H-pyrazol-4-yl)isoquinolin-1-yl)-N-(piperidin-3-yl)benzamide]: the IC50 is 380 nM.

Take `O=C(c1ccc(-n2nnc3cccnc32)cc1F)N(c1nccc2ccc(C#CCO)cc12)[C@@H]1CCCNC1` [Example 103, (R)-4-(3H-[1,2,3]triazolo[4,5-b]pyridin-3-yl)-2-fluoro-N-(7-(3-hydroxyprop-1-yn-1-yl)isoquinolin-1-yl)-N-(piperidin-3-yl)benzamide]: the IC50 is 776 nM.

Turning to `Cc1cccc2ccnc(N(C(=O)c3ccc(-c4cn(C)nn4)cc3)[C@@H]3CCCNC3)c12` [Example 111, (R)-4-(1-methyl-1H-1,2,3-triazol-4-yl)-N-(8-methylisoquinolin-1-yl)-N-(piperidin-3-yl) benzamide], the IC50 was 513 nM.

As for `Cc1cccc2ccnc(N(C(=O)N3CCC4(CC3)OCCc3ccsc34)[C@@H]3CCCNC3)c12` [Example 265, (R)—N-(8-methylisoquinolin-1-yl)-N-(piperidin-3-yl)-4′,5′-dihydrospiro[piperidine-4,7′-thieno[2,3-c]pyran]-1-carboxamide], the IC50 is 5750 nM.

On to `O=C(c1ccc(-n2nnc3cccnc32)cc1F)N(c1nccc2cc(-c3cn[nH]c3)ccc12)[C@@H]1CCCNC1` [Example 106, (R)—N-(6-(1H-pyrazol-4-yl)isoquinolin-1-yl)-4-(3H-[1,2,3]triazolo[4,5-b]pyridin-3-yl)-2-fluoro-N-(piperidin-3-yl)benzamide], for which the IC50 was 537 nM.

`Cc1cccc2ccnc(N(C(=O)N3CCCCC3C(=O)N(C)C)[C@@H]3CCCNC3)c12` (stereo partly drawn) [Example 258, N^2,N^2-dimethyl-N^1-(8-methylisoquinolin-1-yl)-N1-((R)-piperidin-3-yl)piperidine-1,2-dicarboxamide]: the IC50 is 7240 nM.

Take `O=C(c1ccc(-n2nnc3cccnc32)cc1F)N(c1nccc2ccc(Br)cc12)[C@@H]1CCCNC1` [Example 283, (R)-4-(3H-[1,2,3]triazolo[4,5-b]pyridin-3-yl)-N-(7-bromoisoquinolin-1-yl)-2-fluoro-N-(piperidin-3-yl)benzamide]: the IC50 is 1200 nM.

In the case of `Cc1cccc2ccnc(N(C(=O)c3ccc(-n4nnc5cccnc54)cc3)[C@@H]3CCNC3)c12` [Example 232, (R)-4-(3H-[1,2,3]triazolo[4,5-b]pyridin-3-yl)-N-(8-methylisoquinolin-1-yl)-N-(pyrrolidin-3-yl)benzamide], the IC50 is 8510 nM.

Turning to `Cc1cnc(Nc2ccc(C(=O)N(c3nccc4cccc(C)c34)[C@@H]3CCCNC3)c(F)c2)nc1` [Example 186, (R)-2-fluoro-N-(8-methylisoquinolin-1-yl)-4-((5-methylpyrimidin-2-yl)amino)-N-(piperidin-3-yl)benzamide], the IC50 is 200 nM.

Turning to `Cc1cccc2ccnc(N(C(=O)N3CCC(c4nn(C)c(=O)o4)CC3)[C@@H]3CCCNC3)c12` [Example 174, (R)-4-(4-methyl-5-oxo-4,5-dihydro-1,3,4-oxadiazol-2-yl)-N-(8 methylisoquinolin-1-yl)-N-(piperidin-3-yl)piperidine-1-carboxamide], the IC50 is 3550 nM.

In the case of `O=C(c1ccc(-n2nnc3cccnc32)cc1F)N(c1nccc2sc(C3=CCNCC3)cc12)[C@@H]1CCCNC1` [Example 159, (R)-4-(3H-[1,2,3]triazolo[4,5-b]pyridin-3-yl)-2-fluoro-N-(piperidin-3-yl)-N-(2-(1,2,3,6-tetrahydropyridin-4-yl)thieno[3,2-c]pyridin-4-yl)benzamide], the IC50 was 2630 nM.

Turning to `Cn1cc(-c2cccnc2N(C(=O)c2ccc(-n3nnc4cccnc43)cc2F)[C@@H]2CCCNC2)cn1` [Example 115, (R)-4-(3H-[1,2,3]triazolo[4,5-b]pyridin-3-yl)-2-fluoro-N-(3-(1-methyl-1H-pyrazol-4-yl)pyridin-2-yl)-N-(piperidin-3-yl)benzamide], the IC50 is 550 nM.

For the molecule `Cn1cnc2ccnc(N(C(=O)c3ccc(-n4nnc5cccnc54)cc3F)[C@@H]3CCCNC3)c21` [Example 248, (R)-4-(3H-[1,2,3]triazolo[4,5-b]pyridin-3-yl)-2-fluoro-N-(3-methyl-3H-imidazo[4,5-c]pyridin-4-yl)-N-(piperidin-3-yl)benzamide], the IC50 was 851 nM.

In the case of `Cn1cc(-c2ccc(C(=O)N(c3cc(/C=C/c4ccccc4)ccn3)[C@@H]3CCCNC3)cc2)nn1` [Example 109, (R,E)-4-(1-methyl-1H-1,2,3-triazol-4-yl)-N-(piperidin-3-yl)-N-(4-styrylpyridin-2-yl)benzamide], the IC50 is more than 10000 nM.

In the case of `O=C(c1ccc(-n2nnc3cccnc32)cc1F)N(c1nccc2cccc(/C=C/CCO)c12)[C@@H]1CCCNC1` [Example 166, (R,E)-4-(3H-[1,2,3]triazolo[4,5-b]pyridin-3-yl)-2-fluoro-N-(8-(4-hydroxybut-1-en-1-yl)isoquinolin-1-yl)-N-(piperidin-3-yl)benzamide], the IC50 is 141 nM.

In the case of `Cc1cccc2ccnc(N(C(=O)N3CCCC(CC4CCC4)C3)[C@@H]3CCCNC3)c12` (stereo partly drawn) [Example 260, 3-(cyclobutylmethyl)-N-(8-methylisoquinolin-1-yl)-N—((R)-piperidin-3-yl)piperidine-1-carboxamide], the IC50 is 5250 nM.

On to `N#Cc1cccc2ccnc(N(C(=O)c3ccc(-n4nnc5cccnc54)cc3F)[C@@H]3CCCNC3)c12` [Example 164, (R)-4-(3H-[1,2,3]triazolo[4,5-b]pyridin-3-yl)-N-(8-cyanoisoquinolin-1-yl)-2-fluoro-N-(piperidin-3-yl)benzamide], for which the IC50 is 97.7 nM.

For `Cc1ccc2nnn(-c3ccc(C(=O)N(c4nccc5ccn(C)c45)[C@@H]4CCCNC4)c(F)c3)c2n1` [Example 209, (R)-2-fluoro-N-(1-methyl-1H-pyrrolo[2,3-c]pyridin-7-yl)-4-(5-methyl-3H-[1,2,3]triazolo[4,5-b]pyridin-3-yl)-N-(piperidin-3-yl)benzamide], the IC50 is 141 nM.

With `O=C(c1ccc(-n2nnc3cccnc32)cc1F)N(c1nccc2cccc(Cl)c12)[C@@H]1CCCNC1` [Example 246, (R)-4-(3H-[1,2,3]triazolo[4,5-b]pyridin-3-yl)-N-(8-chloroisoquinolin-1-yl)-2-fluoro-N-(piperidin-3-yl)benzamide], the IC50 is 33.1 nM.
